Results on two compounds are retold here after ChEMBL document CHEMBL1140499, “Novel heparin/heparan sulfate mimics as inhibitors of HGF/SF-induced MET activation” (2007).

For orientation: inhibition means the change of the read-out against control, counted positive when it falls.

Experiment [1] is filed under the species Cricetulus griseus. Description: Inhibition of HGF/SF-induced MET receptor activation assessed as ERK activation at 100 ug/mL by Western blot. A general note: In western blotting, separated proteins are transferred to a membrane and probed.
Another experiment has as its system MDCK. Description: Inhibition of HGF/SF-induced migration of MDCK cells at 100 ug/mL after 4 hrs. Format: functional. As to conditions: Canis lupus familiaris.
The species named for experiment [2] is Cricetulus griseus. Nature of the experiment: Inhibition of FGF2-induced FGF receptor activation assessed as ERK activation at 100 ug/mL by Western blot.

The source made the active and inactive calls. The rule behind the calls is not given here.

As to `O=C(O)c1cc(OC[C@@H](COS(=O)(=O)O)OS(=O)(=O)O)ccc1OC[C@H](COS(=O)(=O)O)OS(=O)(=O)O`, in the experiment listed under Cricetulus griseus [1], the result was Active. The inhibition at 100 µg/mL in the experiment with MDCK amounted to 57%. Further, the outcome in the experiment filed under Cricetulus griseus [2] was inactive.
On the same counts, the results for `O=C(O)c1cc(OC[C@@H](COS(=O)(=O)O)OS(=O)(=O)O)ccc1OCCCCOS(=O)(=O)O` are “Active”, 70% and “inactive”.
